From ChEMBL document CHEMBL5038625, “Application of the dual-tail approach for the design and synthesis of novel Thiopyrimidine-Benzenesulfonamide hybrids as selective carbonic anhydrase inhibitors” (Eur J Med Chem, 2022)

Columns and labels:
LOX IMVI = assay: Antiproliferative activity against human LOX IMVI cells assessed as cell growth inhibition at 10 uM incubated for 24 hrs by sulforhodamine B assay; assay type: functional; details: read-out: GI
U-251 = assay: Antiproliferative activity against human U-251 cells assessed as cell growth inhibition at 10 uM incubated for 24 hrs by sulforhodamine B assay; assay type: functional; details: read-out: GI
KM12 = assay: Antiproliferative activity against human KM12 cells assessed as cell growth inhibition at 10 uM incubated for 24 hrs by sulforhodamine B assay; assay type: functional; details: read-out: GI
OVCAR-8 = assay: Antiproliferative activity against human OVCAR-8 cells assessed as cell growth inhibition at 10 uM incubated for 24 hrs by sulforhodamine B assay; assay type: functional; details: read-out: GI
MDA-MB-231 [1] = assay: Antiproliferative activity against human MDA-MB-231 cells assessed as reduction in cell viability incubated for 24 hrs by sulforhodamine B assay; assay type: functional, cell-based; details: MDA-MB-231, 24 h
HL-60 = assay: Antiproliferative activity against human HL-60 cells assessed as cell growth inhibition at 10 uM incubated for 24 hrs by sulforhodamine B assay; assay type: functional; details: read-out: GI
A549 = assay: Antiproliferative activity against human A549 cells assessed as cell growth inhibition at 10 uM incubated for 24 hrs by sulforhodamine B assay; assay type: functional; details: read-out: GI
Hs-578T = assay: Antiproliferative activity against human HS-578T cells assessed as cell growth inhibition at 10 uM incubated for 24 hrs by sulforhodamine B assay; assay type: functional; details: read-out: GI
K562 = assay: Antiproliferative activity against human K562 cells assessed as cell growth inhibition at 10 uM incubated for 24 hrs by sulforhodamine B assay; assay type: functional; details: read-out: GI
MDA-MB-231 [2] = assay: Antiproliferative activity against human MDA-MB-231 cells assessed as cell growth inhibition at 10 uM incubated for 24 hrs by sulforhodamine B assay; assay type: functional; details: read-out: GI
SF-295 = assay: Antiproliferative activity against human SF-295 cells assessed as cell growth inhibition at 10 uM incubated for 24 hrs by sulforhodamine B assay; assay type: functional; details: read-out: GI
NCI-H522 = assay: Antiproliferative activity against human NCI-H522 cells assessed as cell growth inhibition at 10 uM incubated for 24 hrs by sulforhodamine B assay; assay type: functional; details: read-out: GI
MOLT-4 = assay: Antiproliferative activity against human MOLT-4 cells assessed as cell growth inhibition at 10 uM incubated for 24 hrs by sulforhodamine B assay; assay type: functional; details: read-out: GI
UACC-62 = assay: Antiproliferative activity against human UACC-62 cells assessed as cell growth inhibition at 10 uM incubated for 24 hrs by sulforhodamine B assay; assay type: functional; details: read-out: GI
DU-145 = assay: Antiproliferative activity against human DU-145 cells assessed as cell growth inhibition at 10 uM incubated for 24 hrs by sulforhodamine B assay; assay type: functional; details: read-out: GI
CAKI-1 = assay: Antiproliferative activity against human CAKI-1 cells assessed as cell growth inhibition at 10 uM incubated for 24 hrs by sulforhodamine B assay; assay type: functional; details: read-out: GI
SF-539 = assay: Antiproliferative activity against human SF-539 cells assessed as cell growth inhibition at 10 uM incubated for 24 hrs by sulforhodamine B assay; assay type: functional; details: read-out: GI
NCI-H460 = assay: Antiproliferative activity against human NCI-H460 cells assessed as cell growth inhibition at 10 uM incubated for 24 hrs by sulforhodamine B assay; assay type: functional; details: read-out: GI
PC-3 = assay: Antiproliferative activity against human PC-3 cells assessed as cell growth inhibition at 10 uM incubated for 24 hrs by sulforhodamine B assay; assay type: functional; details: read-out: GI
RXF 393 = assay: Antiproliferative activity against human RXF 393 cells assessed as cell growth inhibition at 10 uM incubated for 24 hrs by sulforhodamine B assay; assay type: functional; details: read-out: GI
Malme-3M = assay: Antiproliferative activity against human Malme-3M cells assessed as cell growth inhibition at 10 uM incubated for 24 hrs by sulforhodamine B assay; assay type: functional; details: read-out: GI
T47D [3] = assay: Antiproliferative activity against human T47D cells assessed as reduction in cell viability incubated for 24 hrs by sulforhodamine B assay; assay type: functional, cell-based
RPMI-8226 = assay: Antiproliferative activity against human RPMI-8226 cells assessed as cell growth inhibition at 10 uM incubated for 24 hrs by sulforhodamine B assay; assay type: functional; details: read-out: GI
[4] = Antiproliferative activity against human […] cells assessed as cell growth inhibition at 10 uM incubated for 24 hrs by sulforhodamine B assay; assay type: functional; details: read-out: GI
CCRF-CEM = assay: Antiproliferative activity against human CCRF-CEM cells assessed as cell growth inhibition at 10 uM incubated for 24 hrs by sulforhodamine B assay; assay type: functional; details: read-out: GI
BT-549 = assay: Antiproliferative activity against human BT-549 cells assessed as cell growth inhibition at 10 uM incubated for 24 hrs by sulforhodamine B assay; assay type: functional; details: read-out: GI
SNB-75 = assay: Antiproliferative activity against human SNB-75 cells assessed as cell growth inhibition at 10 uM incubated for 24 hrs by sulforhodamine B assay; assay type: functional; details: read-out: GI
HCT-116 = assay: Antiproliferative activity against human HCT-116 cells assessed as cell growth inhibition at 10 uM incubated for 24 hrs by sulforhodamine B assay; assay type: functional; details: read-out: GI
A498 = assay: Antiproliferative activity against human A498 cells assessed as cell growth inhibition at 10 uM incubated for 24 hrs by sulforhodamine B assay; assay type: functional; details: read-out: GI
HOP-92 = assay: Antiproliferative activity against human HOP-92 cells assessed as cell growth inhibition at 10 uM incubated for 24 hrs by sulforhodamine B assay; assay type: functional; details: read-out: GI
ACHN = assay: Antiproliferative activity against human ACHN cells assessed as cell growth inhibition at 10 uM incubated for 24 hrs by sulforhodamine B assay; assay type: functional; details: read-out: GI
MDA-MB-435 = assay: Antiproliferative activity against human MDA-MB-435 cells assessed as cell growth inhibition at 10 uM incubated for 24 hrs by sulforhodamine B assay; assay type: functional; details: read-out: GI
SNB-19 = assay: Antiproliferative activity against human SNB-19 cells assessed as cell growth inhibition at 10 uM incubated for 24 hrs by sulforhodamine B assay; assay type: functional; details: read-out: GI
EKVX = assay: Antiproliferative activity against human EKVX cells assessed as cell growth inhibition at 10 uM incubated for 24 hrs by sulforhodamine B assay; assay type: functional; details: read-out: GI
Carbonic anhydrase 9 = Carbonic anhydrase 9 (Homo sapiens, UniProt Q16790); assay: Inhibition of human CA9 preincubated for 15 mins by phenol red dye based stopped flow CO2 hydration assay
UO-31 = assay: Antiproliferative activity against human UO-31 cells assessed as cell growth inhibition at 10 uM incubated for 24 hrs by sulforhodamine B assay; assay type: functional; details: read-out: GI
NCI-H226 = assay: Antiproliferative activity against human NCI-H226 cells assessed as cell growth inhibition at 10 uM incubated for 24 hrs by sulforhodamine B assay; assay type: functional; details: read-out: GI
MCF7 [5] = assay: Antiproliferative activity against human MCF7 cells assessed as cell growth inhibition at 10 uM incubated for 24 hrs by sulforhodamine B assay; assay type: functional; details: read-out: GI
T47D [6] = assay: Antiproliferative activity against human T47D cells assessed as cell growth inhibition at 10 uM incubated for 24 hrs by sulforhodamine B assay; assay type: functional; details: read-out: GI
MCF7 [7] = assay: Antiproliferative activity against human MCF7 cells assessed as reduction in cell viability incubated for 24 hrs by sulforhodamine B assay; assay type: functional, cell-based; details: MCF7, 24 h
SR = assay: Antiproliferative activity against human SR cells assessed as cell growth inhibition at 10 uM incubated for 24 hrs by sulforhodamine B assay; assay type: functional; details: read-out: GI
MDA-MB-468 = assay: Antiproliferative activity against human MDA-MB-468 cells assessed as cell growth inhibition at 10 uM incubated for 24 hrs by sulforhodamine B assay; assay type: functional; details: read-out: GI
786-0 = assay: Antiproliferative activity against human 786-0 cells assessed as cell growth inhibition at 10 uM incubated for 24 hrs by sulforhodamine B assay; assay type: functional; details: read-out: GI
OVCAR-4 = assay: Antiproliferative activity against human OVCAR-4 cells assessed as cell growth inhibition at 10 uM incubated for 24 hrs by sulforhodamine B assay; assay type: functional; details: read-out: GI
HCT-15 = assay: Antiproliferative activity against human HCT-15 cells assessed as cell growth inhibition at 10 uM incubated for 24 hrs by sulforhodamine B assay; assay type: functional; details: read-out: GI
SN12C = assay: Antiproliferative activity against human SN12C cells assessed as cell growth inhibition at 10 uM incubated for 24 hrs by sulforhodamine B assay; assay type: functional; details: read-out: GI
SK-MEL-5 = assay: Antiproliferative activity against human SK-MEL-5 cells assessed as cell growth inhibition at 10 uM incubated for 24 hrs by sulforhodamine B assay; assay type: functional; details: read-out: GI

COc1ccc(OC)c(-c2nc(SCC(=O)c3ccccc3)nc(Nc3ccc(S(N)(=O)=O)cc3)c2C#N)c1
inhibition of growth at 10 µM (LOX IMVI): 17.7% | inhibition of growth at 10 µM (U-251): 9.25% | inhibition of growth at 10 µM (KM12): 8.89% | inhibition of growth at 10 µM (OVCAR-8): 7.32% | IC50 (MDA-MB-231 [1]): > 100 µM | inhibition of growth at 10 µM (HL-60): 8.52% | inhibition of growth at 10 µM (A549): 10.8% | inhibition of growth at 10 µM (Hs-578T): 6.75% | inhibition of growth at 10 µM (K562): 14.6% | inhibition of growth at 10 µM (MDA-MB-231 [2]): 23.6% | inhibition of growth at 10 µM (SF-295): 10.3% | inhibition of growth at 10 µM (NCI-H522): 6.74% | inhibition of growth at 10 µM (MOLT-4): 30.1% | inhibition of growth at 10 µM (UACC-62): 5.35% | inhibition of growth at 10 µM (DU-145): 8.97% | inhibition of growth at 10 µM (CAKI-1): 23.3% | inhibition of growth at 10 µM (SF-539): 27.1% | inhibition of growth at 10 µM (NCI-H460): 10.9% | inhibition of growth at 10 µM (PC-3): 20.6% | inhibition of growth at 10 µM (RXF 393): 25.6% | inhibition of growth at 10 µM (Malme-3M): 6.7% | IC50 (T47D [3]): > 100 µM | inhibition of growth at 10 µM (RPMI-8226): 18.1% | inhibition of growth at 10 µM [4]: 10.1% | inhibition of growth at 10 µM (CCRF-CEM): 10.7% | inhibition of growth at 10 µM (BT-549): 8.03% | inhibition of growth at 10 µM (SNB-75): 18.4% | inhibition of growth at 10 µM (HCT-116): 7.67% | inhibition of growth at 10 µM (A498): 30.7% | inhibition of growth at 10 µM (HOP-92): 52% | inhibition of growth at 10 µM (ACHN): 6.95% | inhibition of growth at 10 µM (MDA-MB-435): 7.57% | inhibition of growth at 10 µM (SNB-19): 9.28% | inhibition of growth at 10 µM (EKVX): 11.3% | Ki (Carbonic anhydrase 9): 0.0877 µM | inhibition of growth at 10 µM (UO-31): 29.1% | inhibition of growth at 10 µM (NCI-H226): 7.28% | inhibition of growth at 10 µM (MCF7 [5]): 14.7% | inhibition of growth at 10 µM (T47D [6]): 20.4% | IC50 (MCF7 [7]): > 100 µM | inhibition of growth at 10 µM (SR): 22.7% | inhibition of growth at 10 µM (MDA-MB-468): 18.3% | inhibition of growth at 10 µM (786-0): 12.6% | inhibition of growth at 10 µM (OVCAR-4): 14.9% | inhibition of growth at 10 µM (HCT-15): 26.3% | inhibition of growth at 10 µM (SN12C): 14.1% | inhibition of growth at 10 µM (SK-MEL-5): 5.91%
